Results as given in PubChem BioAssay AID1259407 (Chemical Carcinogenesis Research Information System (CCRIS), 2018).
Calls of active or inactive are those of the source. No rule for the calls is given here.

Tested on: CCRIS mutagenicity, Ames/micronucleus/aberration tests
Test: CCRIS mutagenicity studies
[1] = Test System: AMES SALMONELLA TYPHIMURIUM, Strain/Indicator: TA98, Metabolic Activation: NONE, Method: PREINCUBATION
[2] = Test System: AMES SALMONELLA TYPHIMURIUM, Strain/Indicator: TA100, Metabolic Activation: NONE, Method: PREINCUBATION
[3] = Test System: AMES SALMONELLA TYPHIMURIUM, Strain/Indicator: TA98, Metabolic Activation: NONE, Method: STANDARD PLATE
[4] = Test System: AMES SALMONELLA TYPHIMURIUM, Strain/Indicator: TA100, Metabolic Activation: NONE, Method: STANDARD PLATE
[5] = Test System: AMES SALMONELLA TYPHIMURIUM, Strain/Indicator: TA100, Metabolic Activation: S-9, Method: STANDARD PLATE
[6] = Test System: AMES SALMONELLA TYPHIMURIUM, Strain/Indicator: TA1537, Metabolic Activation: NONE, Method: STANDARD PLATE
[7] = Test System: AMES SALMONELLA TYPHIMURIUM, Strain/Indicator: TA98, Metabolic Activation: NONE
[8] = Test System: AMES SALMONELLA TYPHIMURIUM, Strain/Indicator: TA98, Metabolic Activation: RAT, LIVER, S-9, PCB, Method: PREINCUBATION
[9] = Test System: AMES SALMONELLA TYPHIMURIUM, Strain/Indicator: TA100, Metabolic Activation: RAT, LIVER, S-9, PCB, Method: PREINCUBATION

Question: Which mutagenic call [1] does the source give for `O=C=Nc1cccc2c(N=C=O)cccc12` here?
Answer: inactive; negative

Question: What about the mutagenic call (Test System: AMES SALMONELLA TYPHIMURIUM, Strain/Indicator: TA98, Metabolic Activation: RAT LIVER S-9, PHENOBARBITAL AND BETA-NAPHTHOFLAVONE, Method: PREINCUBATION) of the same molecule?
Answer: inactive; negative

Question: And the mutagenic call [2]?
Answer: inactive; negative

Question: What about the mutagenic call (Test System: AMES SALMONELLA TYPHIMURIUM, Strain/Indicator: TA100, Metabolic Activation: RAT LIVER S-9, PHENOBARBITAL AND BETA-NAPHTHOFLAVONE, Method: PREINCUBATION) of the same molecule?
Answer: inactive; negative

Question: What about the mutagenic call (Test System: AMES SALMONELLA TYPHIMURIUM, Strain/Indicator: TA1535, Metabolic Activation: NONE, Method: PREINCUBATION) of the same molecule?
Answer: inactive; negative

Question: What about the mutagenic call (Test System: AMES SALMONELLA TYPHIMURIUM, Strain/Indicator: TA1535, Metabolic Activation: RAT LIVER S-9, PHENOBARBITAL AND BETA-NAPHTHOFLAVONE, Method: PREINCUBATION) of the same molecule?
Answer: inactive; negative

Question: And the mutagenic call (Test System: AMES SALMONELLA TYPHIMURIUM, Strain/Indicator: TA1537, Metabolic Activation: NONE, Method: PREINCUBATION)?
Answer: inactive; negative

Question: And the mutagenic call (Test System: AMES SALMONELLA TYPHIMURIUM, Strain/Indicator: TA1537, Metabolic Activation: RAT LIVER S-9, PHENOBARBITAL AND BETA-NAPHTHOFLAVONE, Method: PREINCUBATION)?
Answer: inactive; negative

Question: What about the mutagenic call (Test System: AMES SALMONELLA TYPHIMURIUM, Strain/Indicator: TA1538, Metabolic Activation: NONE, Method: PREINCUBATION) of the same molecule?
Answer: inactive; negative

Question: What about the mutagenic call (Test System: AMES SALMONELLA TYPHIMURIUM, Strain/Indicator: TA1538, Metabolic Activation: RAT LIVER S-9, PHENOBARBITAL AND BETA-NAPHTHOFLAVONE, Method: PREINCUBATION) of the same molecule?
Answer: inactive; negative

Question: What about the mutagenic call (Test System: E.COLI, Strain/Indicator: WP2UVRA, Metabolic Activation: NONE, Method: PREINCUBATION) of the same molecule?
Answer: inactive; negative

Question: What about the mutagenic call (Test System: E.COLI, Strain/Indicator: WP2UVRA, Metabolic Activation: RAT LIVER S-9, PHENOBARBITAL AND BETA-NAPHTHOFLAVONE, Method: PREINCUBATION) of the same molecule?
Answer: inactive; negative

Question: `Nc1snc2c(Cl)cc(Cl)cc12` was tested. Which mutagenic call [3] did it give?
Answer: inactive; negative

Question: What about the mutagenic call (Test System: AMES SALMONELLA TYPHIMURIUM, Strain/Indicator: TA98, Metabolic Activation: S-9, Method: STANDARD PLATE) of the same molecule?
Answer: inactive; negative

Question: And the mutagenic call [4]?
Answer: inactive; negative

Question: What about the mutagenic call [5] of the same molecule?
Answer: active; positive

Question: And the mutagenic call (Test System: AMES SALMONELLA TYPHIMURIUM, Strain/Indicator: TA1535, Metabolic Activation: NONE, Method: STANDARD PLATE)?
Answer: inactive; negative

Question: And the mutagenic call (Test System: AMES SALMONELLA TYPHIMURIUM, Strain/Indicator: TA1535, Metabolic Activation: S-9, Method: STANDARD PLATE)?
Answer: inactive; negative

Question: And the mutagenic call [6]?
Answer: inactive; negative

Question: What about the mutagenic call (Test System: AMES SALMONELLA TYPHIMURIUM, Strain/Indicator: TA1537, Metabolic Activation: S-9, Method: STANDARD PLATE) of the same molecule?
Answer: active; positive

Question: Which mutagenic call (Test System: AMES SALMONELLA TYPHIMURIUM, Strain/Indicator: TA100, Metabolic Activation: RAT, INTACT HEPATOCYTES, AROCLOR 1254, Method: PREINCUBATION) does the source give for `Cc1cc2cccc3ccc4cc5ccccc5c1c4c32` here?
Answer: active; positive

Question: And the mutagenic call (Test System: AMES SALMONELLA TYPHIMURIUM, Strain/Indicator: TA100, Metabolic Activation: RAT, NADPH-FORTIFIED HOMOGENIZED HEPATOCYTES, AROCLOR 1254, Method: PREINCUBATION)?
Answer: active; positive

Question: With `Fc1ccccn1` as the molecule, how does the mutagenic call (Test System: AMES SALMONELLA TYPHIMURIUM, Strain/Indicator: TA97, Metabolic Activation: NONE, Method: STANDARD PLATE) read?
Answer: inactive; negative

Question: And the mutagenic call (Test System: AMES SALMONELLA TYPHIMURIUM, Strain/Indicator: TA97, Metabolic Activation: RAT, LIVER, S-9, AROCLOR 1254, Method: STANDARD PLATE)?
Answer: inactive; negative

Question: What about the mutagenic call [3] of the same molecule?
Answer: inactive; negative

Question: And the mutagenic call (Test System: AMES SALMONELLA TYPHIMURIUM, Strain/Indicator: TA98, Metabolic Activation: RAT, LIVER, S-9, AROCLOR 1254, Method: STANDARD PLATE)?
Answer: active; positive

Question: What about the mutagenic call [4] of the same molecule?
Answer: inactive; negative

Question: What about the mutagenic call (Test System: AMES SALMONELLA TYPHIMURIUM, Strain/Indicator: TA100, Metabolic Activation: RAT, LIVER, S-9, AROCLOR 1254, Method: STANDARD PLATE) of the same molecule?
Answer: inactive; negative

Question: And the mutagenic call (Test System: AMES SALMONELLA TYPHIMURIUM, Strain/Indicator: TA102, Metabolic Activation: NONE, Method: STANDARD PLATE)?
Answer: inactive; negative

Question: What about the mutagenic call (Test System: AMES SALMONELLA TYPHIMURIUM, Strain/Indicator: TA102, Metabolic Activation: RAT, LIVER, S-9, AROCLOR 1254, Method: STANDARD PLATE) of the same molecule?
Answer: inactive; negative

Question: `N[C@@H](CCC(=O)NC(CSC(Cl)=C(Cl)Cl)C(=O)NCC(=O)O)C(=O)O` (stereo partly drawn) was tested. Which mutagenic call [2] did it give?
Answer: inactive; negative

Question: What about the mutagenic call (Test System: AMES SALMONELLA TYPHIMURIUM, Strain/Indicator: TA100, Metabolic Activation: RAT, KIDNEY, MICROSOMES, Method: PREINCUBATION) of the same molecule?
Answer: active; positive

Question: With `C[C@]12CCc3c(ccc4cc(O)ccc34)[C@@H]1CCC2=O` as the molecule, how does the mutagenic call (Test System: UDS RAT HEPATOCYTES, Strain/Indicator: THY INCORP (18-20 HR), Metabolic Activation: NONE, Method: LIQUID SCINTILLATION COUNTING) read?
Answer: inactive; negative

Question: For `O=C(O)/C=C/C(=O)CC(=O)CC(=O)O`, which mutagenic call (Test System: CHINESE HAMSTER V-79, Strain/Indicator: V-79 (HGPRT)/6-THIOGUANINE, Metabolic Activation: NONE) is on record?
Answer: active; positive

Question: How did the mutagenic call [7] turn out when `Nc1ccc2ccc3c4ccccc4cc4ccc1c2c43` was run?
Answer: active; positive

Question: What about the mutagenic call (Test System: AMES SALMONELLA TYPHIMURIUM, Strain/Indicator: TA98, Metabolic Activation: RAT, LIVER, S-9, AROCLOR 1254) of the same molecule?
Answer: active; positive

Question: With `O=C(CBr)c1ccc(-c2ccccc2)cc1` as the molecule, how does the mutagenic call [1] read?
Answer: inactive; negative

Question: And the mutagenic call [8]?
Answer: inactive; negative

Question: And the mutagenic call [9]?
Answer: inactive; negative

Question: What about the mutagenic call (Test System: E. COLI, Strain/Indicator: WP2 UVRA, Metabolic Activation: NONE, Method: PREINCUBATION) of the same molecule?
Answer: inactive; negative

Question: Which mutagenic call (End Point: IN VITRO CHROMOSOMAL ABERRATIONS, Test System: CHL CELLS, Metabolic Activation: NONE) does the source give for `CCOC(=O)CCBr` here?
Answer: active; positive (structural changes)

Question: And the mutagenic call (End Point: IN VITRO CHROMOSOMAL ABERRATIONS, Test System: CHL CELLS, Metabolic Activation: RAT, LIVER, S-9, SODIUM PHENOBARBITAL AND 5,6-BENZOFLAVONE)?
Answer: active; positive (structural changes)

Question: How did the mutagenic call [6] turn out when `CNc1ccc(Nc2c3ccccc3nc3ccccc23)cc1` was run?
Answer: active; positive

Question: `O=C(N=c1sn(C(=O)c2ccccc2)c2ccc([N+](=O)[O-])cc12)c1ccccc1` was tested. Which mutagenic call [5] did it give?
Answer: active; positive

Question: What does the source list for `CC(C)=CC1C(C(=O)OCN2C(=O)C3=C(CCCC3)C2=O)C1(C)C` (stereo not drawn)?
Answer: mutagenic call (Test System: AMES SALMONELLA TYPHIMURIUM, Strain/Indicator: TA98): active; positive; mutagenic call [7]: active; positive; mutagenic call (Test System: AMES SALMONELLA TYPHIMURIUM, Strain/Indicator: TA98, Metabolic Activation: NONE, Method: MICROSUSPENSION): inactive; negative; mutagenic call (Test System: AMES SALMONELLA TYPHIMURIUM, Strain/Indicator: TA98, Metabolic Activation: S-9, Method: MICROSUSPENSION): inactive; negative; mutagenic call (Test System: AMES SALMONELLA TYPHIMURIUM, Strain/Indicator: TA100): active; positive; mutagenic call (Test System: AMES SALMONELLA TYPHIMURIUM, Strain/Indicator: TA100, Metabolic Activation: NONE): inactive; negative; mutagenic call (Test System: AMES SALMONELLA TYPHIMURIUM, Strain/Indicator: TA100, Metabolic Activation: NONE, Method: MICROSUSPENSION): inactive; negative; mutagenic call (Test System: AMES SALMONELLA TYPHIMURIUM, Strain/Indicator: TA100, Metabolic Activation: S-9, Method: MICROSUSPENSION): inactive; negative

Question: How did the mutagenic call (Test System: UDS HUMAN HEPATOCYTES, Strain/Indicator: THY INCORP, Metabolic Activation: NONE, Method: AUTORADIOGRAPHY) turn out when `CC(C)(C)N(CC(O)COc1cccc2c1CC(O)C(O)C2)N=O` (stereo not drawn) was run?
Answer: active; positive

Question: What about the mutagenic call (Test System: UDS RAT HEPATOCYTES, Strain/Indicator: THY INCORP, Metabolic Activation: NONE, Method: AUTORADIOGRAPHY) of the same molecule?
Answer: active; positive

Question: `CCc1nc2ccc(NC)c(C)c2nc1CC` was tested. Which mutagenic call [1] did it give?
Answer: inactive; negative

Question: What about the mutagenic call [8] of the same molecule?
Answer: active; positive

Question: What about the mutagenic call [2] of the same molecule?
Answer: inactive; negative

Question: And the mutagenic call [9]?
Answer: active; positive
